Structures are written as SMILES. pEC50, pIC50: −log10 of the molar value.

Data set [1] concerns the target Rho-associated protein kinase 2 (Homo sapiens, UniProt O75116). Kind of data set: Inhibition of ROCK2 by luciferase based ATP detection assay.
A further data set can be described thus: in vitro. The conditions noted are these: human.
For the next data set, the system named is Aorta. Kind of data set: Vasorelaxant activity in rat aortic ring assessed as inhibition of phenylephrine-induced contraction. Format: functional, tissue-based.
Data set [2] addresses T1, Protein kinase C epsilon type (Homo sapiens, UniProt Q02156).
T1 sequence (Q02156 whole entry): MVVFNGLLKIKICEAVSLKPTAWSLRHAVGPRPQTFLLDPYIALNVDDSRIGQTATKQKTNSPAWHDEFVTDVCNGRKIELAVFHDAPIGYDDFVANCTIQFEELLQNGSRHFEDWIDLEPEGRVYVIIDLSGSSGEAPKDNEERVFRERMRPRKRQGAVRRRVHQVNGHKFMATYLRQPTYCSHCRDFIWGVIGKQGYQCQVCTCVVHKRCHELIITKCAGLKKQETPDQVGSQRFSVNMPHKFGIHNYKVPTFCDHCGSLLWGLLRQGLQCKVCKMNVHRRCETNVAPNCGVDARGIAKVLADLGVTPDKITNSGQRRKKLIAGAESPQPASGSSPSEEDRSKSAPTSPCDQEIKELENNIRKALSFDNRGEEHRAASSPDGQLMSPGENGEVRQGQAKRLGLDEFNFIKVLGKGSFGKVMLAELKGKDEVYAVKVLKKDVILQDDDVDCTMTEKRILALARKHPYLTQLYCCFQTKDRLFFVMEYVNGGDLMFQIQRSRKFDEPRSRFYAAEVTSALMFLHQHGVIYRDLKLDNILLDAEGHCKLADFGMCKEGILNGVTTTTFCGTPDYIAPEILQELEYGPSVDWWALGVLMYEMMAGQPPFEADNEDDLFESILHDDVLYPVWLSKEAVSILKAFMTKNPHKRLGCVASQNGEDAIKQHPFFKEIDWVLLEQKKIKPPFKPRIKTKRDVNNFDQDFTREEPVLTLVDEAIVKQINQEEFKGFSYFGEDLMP
Kind of data set: Inhibition of PRKCE.

For data set [3], the target named is Serine/threonine-protein kinase N2 (Homo sapiens, UniProt Q16513). Kind of data set: Inhibition of PRKCL2.
For data set [4], the target named is T2, cGMP-dependent protein kinase 2 (Homo sapiens, UniProt Q13237).
T2 sequence (Q13237 whole entry): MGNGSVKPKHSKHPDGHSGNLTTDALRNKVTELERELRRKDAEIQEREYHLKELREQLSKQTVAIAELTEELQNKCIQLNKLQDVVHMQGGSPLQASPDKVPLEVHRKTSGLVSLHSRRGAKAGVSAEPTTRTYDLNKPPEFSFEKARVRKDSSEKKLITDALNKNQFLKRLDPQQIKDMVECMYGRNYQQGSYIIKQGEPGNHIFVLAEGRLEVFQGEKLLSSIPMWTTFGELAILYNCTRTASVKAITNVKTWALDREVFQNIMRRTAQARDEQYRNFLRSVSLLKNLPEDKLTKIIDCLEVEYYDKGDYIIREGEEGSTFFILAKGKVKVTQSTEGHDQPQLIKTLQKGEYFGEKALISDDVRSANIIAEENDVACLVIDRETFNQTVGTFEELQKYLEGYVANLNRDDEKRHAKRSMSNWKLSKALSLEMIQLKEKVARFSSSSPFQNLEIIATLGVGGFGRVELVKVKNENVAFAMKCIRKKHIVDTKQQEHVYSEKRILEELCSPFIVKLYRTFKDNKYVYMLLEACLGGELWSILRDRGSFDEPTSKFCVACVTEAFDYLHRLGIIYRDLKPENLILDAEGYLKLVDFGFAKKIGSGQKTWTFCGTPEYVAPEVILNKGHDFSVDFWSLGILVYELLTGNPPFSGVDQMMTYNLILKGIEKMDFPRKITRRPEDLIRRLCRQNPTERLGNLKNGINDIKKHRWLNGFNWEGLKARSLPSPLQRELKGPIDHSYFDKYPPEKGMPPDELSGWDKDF
Put plainly: Inhibition of PRKG2.

Rho-associated protein kinase 2, sequence (O75116 whole entry): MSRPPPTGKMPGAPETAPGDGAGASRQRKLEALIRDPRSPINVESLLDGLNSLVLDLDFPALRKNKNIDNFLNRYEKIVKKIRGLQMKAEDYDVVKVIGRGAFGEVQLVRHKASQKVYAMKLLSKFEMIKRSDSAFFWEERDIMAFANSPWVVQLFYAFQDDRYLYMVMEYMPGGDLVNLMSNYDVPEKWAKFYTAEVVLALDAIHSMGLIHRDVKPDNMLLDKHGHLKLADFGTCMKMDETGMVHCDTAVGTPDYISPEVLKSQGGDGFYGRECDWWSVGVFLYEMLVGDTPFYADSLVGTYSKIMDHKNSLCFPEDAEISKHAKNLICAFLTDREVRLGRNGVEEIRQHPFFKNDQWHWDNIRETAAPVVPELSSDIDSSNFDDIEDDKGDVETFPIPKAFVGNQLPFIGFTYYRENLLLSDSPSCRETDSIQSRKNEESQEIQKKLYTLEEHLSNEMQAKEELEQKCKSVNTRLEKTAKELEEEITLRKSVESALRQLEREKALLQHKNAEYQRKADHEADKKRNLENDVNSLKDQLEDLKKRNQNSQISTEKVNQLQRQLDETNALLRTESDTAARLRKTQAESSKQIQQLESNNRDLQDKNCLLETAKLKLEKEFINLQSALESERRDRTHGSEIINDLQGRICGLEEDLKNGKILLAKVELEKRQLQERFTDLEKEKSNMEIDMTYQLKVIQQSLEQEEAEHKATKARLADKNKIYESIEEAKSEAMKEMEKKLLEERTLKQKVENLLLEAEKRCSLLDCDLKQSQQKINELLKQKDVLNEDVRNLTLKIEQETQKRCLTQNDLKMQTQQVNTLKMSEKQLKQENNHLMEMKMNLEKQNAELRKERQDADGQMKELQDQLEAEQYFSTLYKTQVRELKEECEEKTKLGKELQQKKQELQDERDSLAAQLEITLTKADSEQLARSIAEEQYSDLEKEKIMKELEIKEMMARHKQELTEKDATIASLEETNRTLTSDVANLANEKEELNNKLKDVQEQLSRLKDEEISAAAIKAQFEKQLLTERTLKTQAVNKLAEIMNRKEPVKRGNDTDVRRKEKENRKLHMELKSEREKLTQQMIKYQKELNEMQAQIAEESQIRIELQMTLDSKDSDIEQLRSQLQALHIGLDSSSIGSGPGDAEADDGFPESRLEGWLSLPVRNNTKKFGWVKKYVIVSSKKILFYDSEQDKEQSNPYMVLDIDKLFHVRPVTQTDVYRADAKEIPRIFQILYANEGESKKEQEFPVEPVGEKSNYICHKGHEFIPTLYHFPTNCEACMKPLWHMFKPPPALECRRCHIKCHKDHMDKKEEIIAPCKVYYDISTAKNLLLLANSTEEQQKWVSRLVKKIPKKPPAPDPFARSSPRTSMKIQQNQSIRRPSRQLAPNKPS
Serine/threonine-protein kinase N2, sequence (Q16513 whole entry): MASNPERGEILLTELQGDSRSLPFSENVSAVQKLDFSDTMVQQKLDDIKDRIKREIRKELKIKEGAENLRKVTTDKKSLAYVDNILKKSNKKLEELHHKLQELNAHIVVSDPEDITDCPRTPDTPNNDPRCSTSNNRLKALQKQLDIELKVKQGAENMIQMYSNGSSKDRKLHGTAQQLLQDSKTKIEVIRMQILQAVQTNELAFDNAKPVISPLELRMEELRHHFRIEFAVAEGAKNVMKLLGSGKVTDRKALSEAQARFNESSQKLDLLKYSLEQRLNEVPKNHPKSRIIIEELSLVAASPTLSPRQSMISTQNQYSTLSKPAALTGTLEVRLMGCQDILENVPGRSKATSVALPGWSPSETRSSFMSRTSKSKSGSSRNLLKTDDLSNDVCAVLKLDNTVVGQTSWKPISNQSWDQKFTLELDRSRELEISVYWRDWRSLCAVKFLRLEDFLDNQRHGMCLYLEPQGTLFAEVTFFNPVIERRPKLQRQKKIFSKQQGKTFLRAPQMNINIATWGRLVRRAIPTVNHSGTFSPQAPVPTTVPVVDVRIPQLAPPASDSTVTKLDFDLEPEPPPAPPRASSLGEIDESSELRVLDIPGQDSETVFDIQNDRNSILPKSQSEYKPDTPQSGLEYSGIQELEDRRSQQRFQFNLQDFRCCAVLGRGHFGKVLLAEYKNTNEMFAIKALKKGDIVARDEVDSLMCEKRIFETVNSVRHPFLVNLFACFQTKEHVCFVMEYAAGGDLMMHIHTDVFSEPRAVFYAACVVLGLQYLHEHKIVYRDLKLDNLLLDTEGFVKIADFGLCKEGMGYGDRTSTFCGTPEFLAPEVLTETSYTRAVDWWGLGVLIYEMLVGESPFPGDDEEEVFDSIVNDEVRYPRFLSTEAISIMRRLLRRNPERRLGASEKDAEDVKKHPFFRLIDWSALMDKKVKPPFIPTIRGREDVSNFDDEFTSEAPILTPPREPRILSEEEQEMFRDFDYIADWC

As usually defined, the pIC50 is the negative decadic logarithm of the IC50, by convention in mol/L. High values mean a small IC50, low ones a large IC50. The compound `CC(C)(C)c1cccc(C2CNCC2C(=O)Nc2cc3cc[nH]c(=O)c3cc2Cl)c1` (racemic) showed a negative-log IC50 (pIC50) in data set [1] of 7.96.
A word on the half-life: it is how long it takes for the measured level to halve. A higher half-life goes with slow decline. A word on the pEC50: it is the EC50 on a negative log10 scale, so that one unit is a factor of ten. Regarding `O=C(Nc1cc2cc[nH]c(=O)c2cc1Cl)C1CNCC1c1cccnc1` (racemic), the pIC50 in data set [1] is 8.10. The half-life in “in vitro” (microsomes) amounted to 49 min. For the same compound, the pEC50 in the data set with Aorta is 6.82.
In turn, `O=C(Nc1cc2cc[nH]c(=O)c2cc1Cl)C1CNCC1c1cccc(OC(F)(F)F)c1` (racemic) showed a pIC50 in data set [1] of 8.15.
The same measure, in the same setting: the result for `O=C(Nc1cc2cc[nH]c(=O)c2cc1Cl)C1CNCC1c1cccc(C(F)(F)F)c1` (racemic) reads 8.40; that for `O=C(Nc1cc2cc[nH]c(=O)c2cc1Cl)C1(c2ccccc2)CCNC1` (centres undefined), 6.62.
As to `CNC(C(=O)Nc1cc2cc[nH]c(=O)c2cc1Cl)c1ccccc1` (centres undefined), in the data set “in vitro” (microsomes), the half-life worked out at 15 min. Also, the pEC50 in the data set on Aorta is 6.77.
Turning to `CCc1cccc(C2CNCC2C(=O)Nc2cc3cc[nH]c(=O)c3cc2Cl)c1` (racemic), in data set [1], the pIC50 is 8.40.
Compound `O=C(Nc1cc2cc[nH]c(=O)c2cc1Cl)C1CNCC1c1ccc(Cl)cc1` (racemic) gave a pIC50 in data set [1] of 8.22. Also, in the data set “in vitro” (liver microsomes), the half-life is above 300 min. Further, the pEC50 with Aorta was 7.22.
On the same counts, the results for `O=C(Nc1cc2cc[nH]c(=O)c2cc1Cl)C1CNCC1c1ccccc1` (racemic) are 8.22, 130 min and 7.05.
As for `COc1cccc(C2CNCC2C(=O)Nc2cc3cc[nH]c(=O)c3cc2Cl)c1` (racemic), the pIC50 in data set [1] is 8.40. The pEC50 with Aorta is 7.06.
Consider `O=C(Nc1cc2cc[nH]c(=O)c2cc1Cl)C1(c2ccccc2)CCNCC1`, for which the pIC50 in data set [1] is 6.64.
With `O=C(Nc1cc2cc[nH]c(=O)c2cc1Cl)[C@H]1CNC[C@@H]1c1ccc(Cl)cc1`, the negative logarithm of the EC50 (pEC50) in the data set on Aorta is 7.40.
Consider `O=C(Nc1cc2cc[nH]c(=O)c2cc1Cl)[C@@H]1CNC[C@H]1c1ccc(Cl)cc1`, for which the pIC50 in data set [1] was 8.40; in data set [2], 6.00; in data set [3], 7.85; in data set [4] it was 7.62. Moreover, the negative-log EC50 (pEC50) with Aorta was 7.64.
Compound `O=C(Nc1cc2cc[nH]c(=O)c2cc1Cl)C1CNCC1c1ccc(F)cc1` (racemic) had a negative-log IC50 (pIC50) in data set [1] of 8.05. In “in vitro” (liver microsomes), this compound displayed a half-life of 61 min. For the same compound, the pEC50 in the data set with Aorta is 6.80.
`O=C(Nc1cc2cc[nH]c(=O)c2cc1Cl)C1CNCC1c1ccc(Br)cc1` (racemic) gave a pIC50 in data set [1] of 8.40. Further, the half-life in the data set “in vitro” (microsomes) is 238 min. Also, the pEC50 in the data set with Aorta is 6.85.
Compound `O=C(Nc1cc2cc[nH]c(=O)c2cc1Cl)C1CNCC1c1ccncc1` (racemic) showed a pIC50 in data set [1] of 7.59. Further, in the data set with Aorta, the pEC50 is 7.18.
Compound `Cc1cccc(C2CNCC2C(=O)Nc2cc3cc[nH]c(=O)c3cc2Cl)c1` (racemic) gave a pIC50 in data set [1] of 8.30.
On the same count and under the same terms, next, `NC(C(=O)Nc1cc2cc[nH]c(=O)c2cc1Cl)c1cccc(Cl)c1` (centres undefined): 7.82.
In the case of `O=C(Nc1cc2cc[nH]c(=O)c2cc1Cl)C1CNCC1c1cccc(Br)c1` (racemic), in data set [1], the pIC50 was 8.70. The half-life in “in vitro” (liver microsomes) came to 43 min. Moreover, the pEC50 in the data set on Aorta was 7.20.
As to `O=C(Nc1cc2cc[nH]c(=O)c2cc1Cl)C1CNCC1c1ccc(Cl)cc1Cl` (racemic), the pIC50 in data set [1] was 8.10.
`O=C(Nc1cc2cc[nH]c(=O)c2cc1Cl)C1CNCCC1c1ccccc1` (racemic): the pIC50 in data set [1] is 8.22. Moreover, in the data set “in vitro” (liver microsomes), the half-life stood at 37 min. Besides, in the data set on Aorta, the negative-log EC50 (pEC50) is 7.26.
Take `CC(C)c1cccc(C2CNCC2C(=O)Nc2cc3cc[nH]c(=O)c3cc2Cl)c1` (racemic): the pIC50 in data set [1] is 8.22.
`O=C(Nc1cc2cc[nH]c(=O)c2cc1Cl)C1CNCC1c1ccccn1` (racemic) showed a pIC50 in data set [1] of 7.85. The compound also displayed a half-life in “in vitro” (liver microsomes) of 58 min. Also, the pEC50 in the data set on Aorta was 6.68.
For `O=C(Nc1cc2cc[nH]c(=O)c2cc1Cl)[C@@H]1CCCNC1` the same measures were 7.33, 71 min and 6.26.

The values above are taken from ChEMBL document CHEMBL1155533, “Substituted 2H-isoquinolin-1-ones as potent Rho-kinase inhibitors: part 3, aryl substituted pyrrolidines” (Bioorg Med Chem Lett, 2010).
